The supplement of paper PMC10307832

How the values were obtained:
Test in all cases: relative viability (nuclei count vs DMSO), 5 days (fraction); higher = more cells survive
[1] = compound: C1/C(=C\C2=CC=CS2)/C(=O)/C(=C/C3=CC=CS3)/C1 + CC(=O)Nc1cccc(-n2c(=O)n(C3CC3)c(=O)c3c(Nc4ccc(I)cc4F)n(C)c(=O)c(C)c32)c1 [Trametinib] (partner 0.02 µM)
Method in brief: (§1)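 Lung cancer cell lines in 1536-well plates were dosed by pin tool the day after seeding, either with one drug alone or with a fixed anchor-drug dose plus five library-drug doses (not always all listed) in √10 steps. After 5 days, cells were fixed and their nuclei stained in one step (final 0.05% Triton X-100, 1% formaldehyde, 1 ug/ml Hoechst), then counted on 4× images. Relative viability is the nuclei count in treated wells divided by that in vehicle wells. Values are medians of duplicate plates.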

Lestaurtinib + Foretinib = compound: C[C@]12O[C@H](C[C@]1(O)CO)n1c3ccccc3c3c4c(c5c6ccccc6n2c5c31)CNC4=O [Lestaurtinib] + COc1cc2c(Oc3ccc(NC(=O)C4(C(=O)Nc5ccc(F)cc5)CC4)cc3F)ccnc2cc1OCCCN1CCOCC1 [Foretinib] (partner 0.25 µM)
Method in brief: as §1

[2] = compound: C1/C(=C\C2=CC=CS2)/C(=O)/C(=C/C3=CC=CS3)/C1 + Cc1cc(Nc2cc(N3CCN(C)CC3)nc(Sc3ccc(NC(=O)C4CC4)cc3)n2)n[nH]1 [Tozasertib] (partner 0.1 µM)
Method in brief: as §1

[3] = compound: C1/C(=C\C2=CC=CS2)/C(=O)/C(=C/C3=CC=CS3)/C1 + COc1cc2c(Oc3ccc(NC(=O)C4(C(=O)Nc5ccc(F)cc5)CC4)cc3F)ccnc2cc1OCCCN1CCOCC1 [Foretinib] (partner 0.25 µM)
Method in brief: as §1

Cell Line | relative viability ([1]; first compound 0.2 µM) | relative viability ([1]; first compound 0.6325 µM) | relative viability ([1]; first compound 2 µM) | relative viability ([1]; first compound 6.325 µM) | relative viability ([1]; first compound 20 µM) | relative viability (Lestaurtinib + Foretinib; first compound 0.005 µM) | relative viability (Lestaurtinib + Foretinib; first compound 0.01581 µM) | relative viability (Lestaurtinib + Foretinib; first compound 0.05 µM) | relative viability (Lestaurtinib + Foretinib; first compound 0.1581 µM) | relative viability (Lestaurtinib + Foretinib; first compound 0.5 µM) | relative viability ([2]; first compound 0.2 µM) | relative viability ([2]; first compound 0.6325 µM) | relative viability ([2]; first compound 2 µM) | relative viability ([2]; first compound 6.325 µM) | relative viability ([2]; first compound 20 µM) | relative viability ([3]; first compound 0.2 µM) | relative viability ([3]; first compound 0.6325 µM) | relative viability ([3]; first compound 2 µM) | relative viability ([3]; first compound 6.325 µM) | relative viability ([3]; first compound 20 µM)
RERF-LC-KJ | 0.924 | 0.879 | 0.846 | 0.741 | 0.739 | 0.914 | 1.04 | 0.762 | 0.749 | 0.816 | 0.475 | 0.566 | 0.533 | 0.46 | 0.455 | 0.932 | 0.929 | 0.866 | 0.985 | 0.808
NCI-H441 | 0.607 | 0.429 | 0.552 | 0.446 | 0.418 | 1.07 | 1.02 | 0.795 | 0.933 | 0.277 | 0.657 | 0.614 | 0.613 | 0.631 | 0.528 | 1.11 | 0.913 | 1.15 | 0.867 | 0.927
LCLC-103H | 0.664 | 0.701 | 0.678 | 0.595 | 0.63 | 0.752 | 0.848 | 0.547 | 0.485 | 0.261 | 0.485 | 0.47 | 0.517 | 0.465 | 0.451 | 0.804 | 0.8 | 0.787 | 0.668 | 0.732
HCC-78 | 0.762 | 0.438 | 0.744 | 0.805 | 0.666 | 0.51 | 0.494 | 0.524 | 0.545 | 0.308 | 0.423 | 0.593 | 0.45 | 0.37 | 0.454 | 0.581 | 0.602 | 0.56 | 0.444 | 0.481
NCI-H1915 | 0.311 | 0.309 | 0.315 | 0.262 | 0.322 | 1.14 | 1.21 | 0.869 | 0.762 | 0.287 | 0.428 | 0.456 | 0.447 | 0.422 | 0.446 | 1.09 | 1.1 | 1.01 | 1.07 | 1.1
